Measured values from patent publication US20200140489A1 (priority 2013, published 2020).
Where two headings read alike, the source gives them in different places. Positions of bridges follow the written chain, without caps; N, C: chain ends. Non-standard residues stand in square brackets, D forms with d. Residues, ends and D or L forms follow the SMILES beside them. Nphe = O=C(O)CNCc1ccccc1

Assays:
AgrC-I [1] = biological target: T1, AgrC-I (Staphylococcus aureus, UniProt O07911); format: cell-based, S. aureus
T1 sequence (O07911 1-430): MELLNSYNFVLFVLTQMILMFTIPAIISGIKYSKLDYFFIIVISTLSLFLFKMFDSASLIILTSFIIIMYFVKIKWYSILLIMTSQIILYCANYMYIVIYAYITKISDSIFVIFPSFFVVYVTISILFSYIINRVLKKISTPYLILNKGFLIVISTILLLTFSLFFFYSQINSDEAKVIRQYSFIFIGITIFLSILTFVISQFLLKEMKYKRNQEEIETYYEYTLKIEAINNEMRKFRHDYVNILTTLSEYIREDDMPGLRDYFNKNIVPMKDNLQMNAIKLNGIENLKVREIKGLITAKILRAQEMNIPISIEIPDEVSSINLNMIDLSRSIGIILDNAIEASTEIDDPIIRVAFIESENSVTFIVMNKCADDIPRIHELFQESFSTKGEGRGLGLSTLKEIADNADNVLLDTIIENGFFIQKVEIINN

AgrC-II [2] = biological target: T2, AgrC-II (Staphylococcus aureus, UniProt O33587); format: cell-based, S. aureus; details: for IC50: read-out: AgrC-II IC50, fluorescence reporter strain
T2 sequence (O33587 1-437): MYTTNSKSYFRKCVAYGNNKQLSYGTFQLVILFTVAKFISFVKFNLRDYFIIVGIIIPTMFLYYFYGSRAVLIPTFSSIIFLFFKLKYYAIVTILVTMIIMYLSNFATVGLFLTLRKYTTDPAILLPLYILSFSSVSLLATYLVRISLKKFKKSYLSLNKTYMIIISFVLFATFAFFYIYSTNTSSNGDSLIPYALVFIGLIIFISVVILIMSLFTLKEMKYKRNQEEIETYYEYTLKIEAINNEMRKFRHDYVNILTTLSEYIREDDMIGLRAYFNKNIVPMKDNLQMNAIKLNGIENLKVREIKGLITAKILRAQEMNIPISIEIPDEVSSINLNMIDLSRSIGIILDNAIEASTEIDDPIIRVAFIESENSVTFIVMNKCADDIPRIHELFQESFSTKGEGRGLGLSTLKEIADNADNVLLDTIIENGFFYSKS

AgrC-III [3] = biological target: T3, AgrC-III (Staphylococcus aureus, UniProt O33590); format: cell-based, S. aureus
T3 sequence (O33590 1-425): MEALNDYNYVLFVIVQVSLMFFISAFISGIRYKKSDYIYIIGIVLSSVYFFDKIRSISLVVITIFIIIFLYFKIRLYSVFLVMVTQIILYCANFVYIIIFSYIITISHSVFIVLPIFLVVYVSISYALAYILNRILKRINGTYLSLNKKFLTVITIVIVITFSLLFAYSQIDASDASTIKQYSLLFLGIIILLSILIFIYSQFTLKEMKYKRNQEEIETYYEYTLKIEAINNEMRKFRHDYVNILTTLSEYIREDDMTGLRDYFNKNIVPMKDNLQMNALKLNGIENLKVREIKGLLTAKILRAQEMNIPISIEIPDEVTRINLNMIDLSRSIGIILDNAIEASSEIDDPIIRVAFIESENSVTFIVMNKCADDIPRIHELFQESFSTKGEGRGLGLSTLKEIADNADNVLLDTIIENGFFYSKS

AgrC-IV [4] = biological target: T4, AgrC-IV (Staphylococcus aureus, UniProt Q309Z2); format: cell-based, S. aureus
T4 sequence (Q309Z2 1-430): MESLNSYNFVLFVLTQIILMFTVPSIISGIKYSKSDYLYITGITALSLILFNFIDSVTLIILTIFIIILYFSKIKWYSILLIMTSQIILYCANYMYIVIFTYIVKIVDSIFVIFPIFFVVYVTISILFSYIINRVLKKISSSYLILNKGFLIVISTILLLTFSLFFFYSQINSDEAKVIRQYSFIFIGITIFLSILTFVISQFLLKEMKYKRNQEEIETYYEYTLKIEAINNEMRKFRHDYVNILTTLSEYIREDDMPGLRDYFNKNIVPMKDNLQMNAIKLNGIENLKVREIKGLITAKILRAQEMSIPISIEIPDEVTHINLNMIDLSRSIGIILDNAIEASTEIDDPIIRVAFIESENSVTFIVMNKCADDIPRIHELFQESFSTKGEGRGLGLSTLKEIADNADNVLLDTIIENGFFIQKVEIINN

[5] = tested on: TSST-1 production in wild-type group-III S. aureus (MN8); format: cell-based
AgrC-III [6] = biological target: T3, AgrC-III; test: Hemolysis assay, wild-type group-III strain MN8, rabbit red blood cells
AgrC-II [7] = biological target: T2, AgrC-II; test: Hemolysis assay, wild-type group-II strain RN6923, rabbit red blood cells
AgrC-IV [8] = biological target: T4, AgrC-IV; test: Hemolysis assay, wild-type group-IV strain RN4850, rabbit red blood cells; details: for IC50: read-out: AgrC-IV IC50, hemolysis assay, 200 fM − 10 μM
AgrC-III [9] = biological target: T3, AgrC-III; details: read-out: AgrC-III EC50; β-lactamase reporter strain; 2.5 pM − 10 μM
AgrC-I [10] = biological target: T1, AgrC-I; test: Hemolysis assay, wild-type group-I strain RN6390B, rabbit red blood cells; details: read-out: AgrC-I IC50; selected second-generation analogues, hemolysis assay; 200 fM − 10 μM

SMILES: CC[C@H](C)[C@H](N)C(=O)N[C@@H](CC(N)=O)C(=O)N[C@H]1CSC(=O)[C@H](CC(C)C)NC(=O)[C@H](CC(C)C)NC(=O)[C@H](Cc2ccccc2)NC(=O)[C@H](C)NC1=O [AIP-III D4A, I-N-(C-A-F-L-L)] (H-INCAFLL; thioester 3-C)
- fold increase of inhibitory activity relative to AIP-III (AgrC-I [1]; gfp reporter, group-I): at least 10 fold
- fold more active inhibitor than tAIP-I D2A (AgrC-I [1]; gfp reporter, group-I): ~10 fold
- fold increase of inhibitory activity relative to AIP-III (AgrC-II [2]; gfp reporter, group-II): at least 10 fold
- fold more active inhibitor than tAIP-I D2A (AgrC-II [2]; gfp reporter, group-II): ~10 fold
- fold increase of inhibitory activity relative to AIP-III (AgrC-III [3]; gfp reporter, group-III): at least 10 fold
- fold more active inhibitor than tAIP-I D2A (AgrC-III [3]; gfp reporter, group-III): ~10 fold
- fold increase of inhibitory activity relative to AIP-III (AgrC-IV [4]; gfp reporter, group-IV): at least 10 fold
- fold more active inhibitor than tAIP-I D2A (AgrC-IV [4]; gfp reporter, group-IV): ~10 fold
- reduction of TSST-1 levels [5]: 80%
- IC50 (AgrC-III [6]; read-out: AgrC-III IC50, 200 fM − 10 μM): 0.163 nM
- fold more active than tAIP-I D2A in the hemolysis assay (AgrC-II [7]; group-II strain): 40 fold
- fold more active than tAIP-I D2A in the hemolysis assay (AgrC-IV [8]; group IV strain): three
- IC50 (AgrC-IV [8]): 0.106 nM

SMILES: CC[C@H](C)[C@H](N)C(=O)N[C@@H](CC(N)=O)C(=O)N[C@H]1CSC(=O)[C@H](CC(C)C)NC(=O)[C@H](CC(C)C)NC(=O)CN(Cc2ccccc2)C(=O)[C@H](CC(=O)O)NC1=O [AIP-III nF5, I-N-(C-D-nF-L-L)] (H-INCD[Nphe]LL; thioester 3-C)
- IC50 (AgrC-I [1]; read-out: AgrC-I IC50, fluorescence reporter strain, AIPs tested over 200 fM − 10 μM or (b1) 2.5 pM − 10 μM, triplicate): 13.8 nM
- fold reduction of potency for AgrC-II versus AIP-III (AgrC-II [2]; gfp reporter): 13 fold
- IC50 (AgrC-II [2]; AIPs tested over 200 fM − 10 μM or (b1) 2.5 pM − 10 μM, triplicate): 75.6 nM
- IC50 (AgrC-III [3]; read-out: AgrC-III IC50, fluorescence reporter strain, AIPs tested over 200 fM − 10 μM or (b1) 2.5 pM − 10 μM, triplicate): > 1000 nM
- fold increase of inhibitory activity relative to AIP-III (AgrC-IV [4]; gfp reporter, group-IV): 10 fold
- IC50 (AgrC-IV [4]; read-out: AgrC-IV IC50, fluorescence reporter strain, AIPs tested over 200 fM − 10 μM or (b1) 2.5 pM − 10 μM, triplicate): 0.839 nM
- EC50 (AgrC-III [9]): 202 nM

SMILES: CC(=O)N[C@H]1CSC(=O)[C@H](CC(C)C)NC(=O)[C@H](CC(C)C)NC(=O)[C@H](Cc2ccccc2)NC(=O)[C@H](C)NC1=O [tAIP-III D2A, Ac-(C-A-F-L-L)] (Ac-CAFLL; thioester 1-C)
- IC50 (AgrC-II [2]; second-generation analogues, 200 fM − 10 μM): 0.9 nM
- reduction of TSST-1 levels [5]: 80%
- IC50 (AgrC-III [6]; read-out: AgrC-III IC50, selected second-generation analogues, 200 fM − 10 μM): 0.197 nM
- IC50 (AgrC-I [10]): 0.332 nM
- IC50 (AgrC-II [7]; read-out: AgrC-II IC50, selected second-generation analogues, hemolysis assay, 200 fM − 10 μM): 0.711 nM
- IC50 (AgrC-IV [8]; selected second-generation analogues): 0.306 nM
